Data reported in ChEMBL document CHEMBL5365479, “Development of Potent and Selective Coactivator-Associated Arginine Methyltransferase 1 (CARM1) Degraders” (J Med Chem, 2023).

Test system: MCF-10A
Assay: Cytotoxicity against human MCF-10A cells assessed as reduction in cell viability at 0.5 uM incubated for 7 days by high contrast bright field microscopic analysis
Format: toxicity, cell-based
Settings: 168 h, time 7 day

CNCCN1CCC(c2cc(CN(C)C(=O)c3cccc(Oc4ccc(OCC(=O)N5CCC(CN6CCC(CN7CCN(CC(=O)N[C@H](C(=O)N8C[C@H](O)C[C@H]8C(=O)N[C@@H](C)c8ccc(-c9scnc9C)cc8)C(C)(C)C)CC7)CC6)CC5)cc4)c3)ccn2)CC1 was tested, and the Activity was “Non-Toxic”.
